Values after ≈ are worked out from the molar mass of the structure shown. Marks after values point to notes of the source that are not given here. Peptide text beside a SMILES is read from it.
Tests used:
[1] = system: Pseudomonas aeruginosa Q5
[2] = system: Eschericia coli ST131; settings: ST131, ESBL CTX-M-15; MHB-II, 37°C, ~5×10^5 CFU/ml, triplicate
[3] = system: Klebsiella pneumoniae ATCC 700603; settings: ATCC 700603, SHV-18, mucoid; MHB-II, 37°C, ~5×10^5 CFU/ml, triplicate
[4] = system: Eschericia coli ML-35p; settings: LacI- LacY- LacZ+, MHB-II, 37°C, ~5×10^5 CFU/ml, triplicate
[5] = system: Pseudomonas aeruginosa PAO1
[6] = system: E. coli ATCC 25922; test: In vivo sepsis/peritonitis mouse infection model; settings: NMRI mice infected IP; 10 mg/ml colistin as printed, IP at 1 and 3 h post infection
[7] = system: Eschericia coli AMA 817
[8] = system: Acinetobacter baumannii CR17; settings: CR17, CS01 pmrA::M12K; MHB-II, 37°C, ~5×10^5 CFU/ml, triplicate
[9] = system: Acinetobacter baumannii AB167
[10] = system: A. baumannii ATCC 19606; test: In vivo sepsis/peritonitis mouse infection model; settings: NMRI mice infected IP, 10 mg/kg IP at 1 and 3 h
[11] = system: Acinetobacter baumannii AB167R; settings: AB167 lpxC::ISAba1, LPS deficient, MHB-II, 37°C, ~5×10^5 CFU/ml, triplicate
[12] = system: Klebsiella pneumoniae ATCC 13883; settings: ATCC 13883
[13] = system: Acinetobacter baumannii CS01
[14] = system: E. coli ESBL20150072; test: In vivo sepsis/peritonitis mouse infection model; settings: NMRI mice infected IP
Description: Outbred female NMRI mice (NMRI; weight 26–30 g; Taconic, Denmark) were used throughout the study, as previously described ([69], [70]). […] Colistin is recommended at a dose of 5-10 mg/kg, according to the European Medicines Agency (EMA) ([71]). The animals were kept in Macrolon type III cages in groups of six and allowed free access to feed and water. Experiments were initiated after an acclimatization period of 7 days. Inoculation (bacterial infection) was performed by intraperitoneal (IP) injection of 0.5 ml bacterial suspension containing 2×10^7 CFU/ml and 5% (wt/vol) mucin (Sigma-Aldrich). During experiments, groups of eight mice per cage constituting one experimental unit were randomly assigned to treatment (5 mg/kg ChIP and 10 mg/kg ChIP or colistin 10 mg/kg and 24 mg/kg) or no treatment (vehicle). Peptide and colistin was administered as a single bolus injection IP (volume injected 0.2 ml) at 1 hours and again 3. At various times post-infection, ∼200 µL blood from the jaw/cheek was collected in Eppendorf tubes with anti-coagulate (Sarstedt, Nümbrecht, Germany). Peritoneal lavage was performed by injecting 2.0 ml of sterile physiological saline IP. After 1 minute of abdominal massage, the peritoneum was opened and peritoneal lavage fluid (PLF) withdrawn. PLF was immediately placed in an insulated 4 °C cooling box for transportation and kept on ice at 4 °C. The mouse peritonitis model was repeated in duplicates for E. coli ATCC 25922 and A. baumannii ATCC 19606 nad in triplicate for E. coli ESBL20150072, while only a single experiment was carried out on A. baumannii CR17. Animals were sacrificed at various times prior to and following infection. Data from repeated experiments were pooled for analyses. Quantification of bacterial load was performed by spot plating of blood and peritoneal fluid samples from the mice. Dilution series were made in sterile 0.9% NaCl solution, from which 20 μl was spotted on solid lactose agar plates (Bromthymole Blue plates, SSI Diagnostica). Bacterial counts were recorded after overnight incubation at 37 °C in ambient air. The detection limit was 50 CFU/ml. The clinical condition of the mice was determined using a self-developed clinical score. For this score, mouse behavior and appearance were observed and evaluated for the parameters piloerection, attitude, locomotion, breathing and curiosity and awarded a score from 0 to 5 by a blinded observer. 0 = no clinical signs, 1 = slightly ruffled fur, 2 = ruffled fur and strenuous breathing, 3 = 2 plus lethargy, 4 = 3 plus hunched posture and decreased activity, and 5 = moribund. No significant difference in the clinical score between groups was observed 2 and 4 h post treatment. All mice were recorded for score 2.

[15] = system: Pseudomonas aeruginosa ATCC 27853
[16] = system: Klebsiella pneumoniae ST512; settings: ST512, KPC-3, ΔmgrB, L-Ara4N modified, mucoid; MHB-II, 37°C, ~5×10^5 CFU/ml, triplicate
[17] = system: Acinetobacter baumannii AB176R; settings: AB176 lpxD::G739T (ΔlpxD), LPS deficient, MHB-II, 37°C, ~5×10^5 CFU/ml, triplicate
[18] = system: E. coli ATCC 25922; test: Time kill experiments; type: cell-based; settings: detection limit 50 CFU
[19] = system: Pseudomonas aeruginosa SNRC (PAO1 background); settings: colistin resistance evolved laboratory isolate, MHB-II, 37°C, ~5×10^5 CFU/ml, triplicate
[20] = system: Acinetobacter baumannii RC64; settings: RC64, ATCC 19606 pmrB::R134C pmrB::A227V; MHB-II, 37°C, ~5×10^5 CFU/ml, triplicate
[21] = system: Eschericia coli MG1655
[22] = system: P. aeruginosa B3-CFI
[23] = system: Acinetobacter baumannii ATCC 19606; settings: ATCC 19606
[24] = system: Acinetobacter baumannii AB176
[25] = system: Eschericia coli ATCC 25922; type: cell-based
[26] = system: Eschericia coli BW25113 pACYC184; settings: BW25113 with pACYC184; MHB-II, 37°C, ~5×10^5 CFU/ml, triplicate

SMILES: CC[C@H](C)CCCCC(=O)N[C@@H](CCN)C(=O)N[C@H](C(=O)N[C@@H](CCN)C(=O)N[C@H]1CCNC(=O)[C@H]([C@@H](C)O)NC(=O)[C@H](CCN)NC(=O)[C@H](CCN)NC(=O)[C@H](CC(C)C)NC(=O)[C@@H](CC(C)C)NC(=O)[C@H](CCN)NC1=O)[C@@H](C)O [Colistin, colistin] (HELM PEPTIDE1{[CC[C@H](C)CCCCC(=O)[*:2]].[Dab].T.[Dab].[Dab].[Dab].[dL].L.[Dab].[Dab].T}$PEPTIDE1,PEPTIDE1,5:R3-11:R2$$$V2.0; N-terminus assumed; bridges inferred)
- MIC [1]: >256 µg/mL
- MIC [2]: 1 µg/mL (≈ 0.855 µM)
- MIC [3]: 2 µg/mL (≈ 1.71 µM)
- MIC [4]: 0.25 µg/mL (≈ 0.214 µM)
- MIC [5]: 0.5 µg/mL (≈ 0.428 µM)
- peritoneal bacterial titers compared with ChIP 5 mg/kg (2 logs reduction, 1-5×10^5 CFU/ml) [6]: similar
- MIC [7]: 0.125 µg/mL (≈ 0.107 µM)
- MIC [8]: >256 µg/mL
- MIC [9]: 0.5 µg/mL (≈ 0.428 µM)
- reduction of peritoneal bacterial titers relative to saline control ([10]; after 5 hours): 3-4 log
- peritoneal bacterial titers ([10]; after 5 hours, saline control around 1×10^8 CFU/ml): 1×10^3-1×10^4 CFU/ml
- bacterial blood titers ([10]; detection limit 50 CFU/ml): reduce CFU/ml to the detection limit
- MIC [11]: >256 µg/mL
- MIC [12]: 0.5 µg/mL (≈ 0.428 µM)
- MIC [13]: 0.5 µg/mL (≈ 0.428 µM)
- effect on peritoneal titers ([14]; 24 mg/kg IP at 1 and 3 h, mcr-1 genotype): no effect
- bacterial blood stream titers ([14]; colistin 24 mg/kg, similar to vehicle control): ~1×10^6 CFU/ml
- MIC [15]: 1 µg/mL (≈ 0.855 µM)
- MIC [16]: 128 µg/mL (≈ 109 µM)
- MIC [17]: >256 µg/mL
- cell viability after treatment ([18]; 1xMIC): reduction in CFU to the detection limit
- cell viability after treatment ([18]; 3xMIC, over the first 5 hours): reduction in CFU to the detection limit
- MIC [19]: >256 µg/mL
- MIC [20]: 64 µg/mL (≈ 54.7 µM)
- MIC [21]: 0.25 µg/mL (≈ 0.214 µM)
- MIC [22]: >256 µg/mL
- MIC [23]: 0.5 µg/mL (≈ 0.428 µM)
- MIC [24]: 0.5 µg/mL (≈ 0.428 µM)
- MIC [25]: 0.125-0.25* μg/ml
- MIC [26]: 0.5 µg/mL (≈ 0.428 µM)
